Reference: US12180226B2, “Spirotricycle RIPK1 inhibitors and methods of uses thereof” (Merck Sharp & Dohme LLC, priority 2021, dated 2024)
Where a name gives a salt, the structure may show the parent alone.

Molecular target: RIPK1 (recombinant GST-RIPK1 kinase domain, residues 1-327) (Homo sapiens (Human), UniProt Q13546)
Test: RIPK1-ADP-Glo Enzymatic Assay
Format: biochemical
Conditions: ADP-Glo; 25 nM GST-RIPK1, 300 μM ATP; assay lower limit ~25 nM; read-out: RIPK1 V0 Ec50
Procedure, shortened: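 Enzyme from baculovirus-infected Sf21 cells, 25 nM final, was pre-incubated 30 min at ambient temperature with compound (ten-point, 1:3 dilution from 100000 nM, 1% DMSO), then reacted 150 min with 300 μM ATP and 3 μM dephosphorylated MBP. ADP was read by luminescence; EC50 from four-parameter fit.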

Sequence of RIPK1 (recombinant GST-RIPK1 kinase domain, residues 1-327) (Q13546 1-327): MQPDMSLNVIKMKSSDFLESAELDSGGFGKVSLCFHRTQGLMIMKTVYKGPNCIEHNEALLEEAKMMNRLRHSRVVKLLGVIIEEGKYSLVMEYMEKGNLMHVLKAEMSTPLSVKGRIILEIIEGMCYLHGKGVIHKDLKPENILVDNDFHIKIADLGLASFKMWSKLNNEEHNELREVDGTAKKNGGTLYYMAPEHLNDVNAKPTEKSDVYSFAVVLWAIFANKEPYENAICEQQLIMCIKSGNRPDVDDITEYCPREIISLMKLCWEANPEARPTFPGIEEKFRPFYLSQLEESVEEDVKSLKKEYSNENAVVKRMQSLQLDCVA

Row | Compound | EC50
1 | O=C1N2[C@@H](CC[C@H]2c2cc(F)cc(F)c2)OC12CCN(c1ncc(F)c(C3CC3)n1)CC2 [Example 4.65, (5′S,7a′R)-1-(4-cyclopropyl-5-fluoropyrimidin-2-yl)-5′-(3,5-difluorophenyl)tetrahydro-3′H-spiro[piperidine-4,2′-pyrrolo[2,1-b] [1,3]oxazol]-3′-one] | 0.164 µM
2 | O=C1N2[C@@H](CC[C@H]2c2ccccc2)OC12CCN(c1ncnn3c(F)cnc13)CC2 [Example 4.226, (5′S,7a′R)-1-(7-fluoroimidazo[2,1-f] [1,2,4]triazin-4-yl)-5′-phenyltetrahydro-3′H-spiro[piperidine-4,2′-pyrrolo[2,1-b] [1,3]oxazol]-3′-one] | < 0.025 µM
3 | COC(=O)c1cnc(N2CCC3(CC2)O[C@@H]2CC[C@@H](c4ccccc4)N2C3=O)nc1 [Example 4.194, methyl 2-[(5′S,7a′R)-3′-oxo-5′-phenyltetrahydro-1H,3′H-spiro[piperidine-4,2′-pyrrolo[2,1-b] [1,3]oxazol]-1-yl]pyrimidine-5-carboxylate] | 0.699 µM
4 | O=C1N2[C@@H](CC[C@H]2c2ccccc2)OC12CCN(c1cc(-c3ccc(F)cc3)c([N+](=O)[O-])cn1)CC2 [Example 4.208, (5′S,7a′R)-1-[4-(4-fluorophenyl)-5-nitropyridin-2-yl]-5′-phenyltetrahydro-3′H-spiro[piperidine-4,2′-pyrrolo[2,1-b] [1,3]oxazol]-3′-one] | 0.056 µM
5 | O=C1N2[C@@H](CC[C@H]2c2ccccc2F)OC12CN(c1cc(Cl)ncn1)C2 [Example 4.107, (5′S,7a′R)-1-(6-chloropyrimidin-4-yl)-5′-(2-fluorophenyl)tetrahydro-3′H-spiro[azetidine-3,2′-pyrrolo[2,1-b]oxazol]-3′-one] | 0.101 µM
6 | N#Cc1ccc(N2CCC3(CC2)O[C@@H]2CC[C@@H](c4ccccc4)N2C3=O)c(F)c1 [Example 4.73, 3-fluoro-4-[(5′S,7a′R)-3′-oxo-5′-phenyltetrahydro-1H,3′H-spiro[piperidine-4,2′-pyrrolo[2,1-b] [1,3]oxazol]-1-yl]benzonitrile] | < 0.025 µM
7 | N#Cc1ccc(N2CCC3(O[C@@H]4CC[C@@H](c5ccccc5)N4C3=O)C(F)C2)n2ncnc12 (stereo partly drawn) [Example 4.257, 5-[(5′S,7a′R)-3-fluoro-3′-oxo-5′-phenyltetrahydro-1H,3′H-spiro[piperidine-4,2′-pyrrolo[2,1-b] [1,3]oxazol]-1-yl][1,2,4]triazolo[1,5-a] pyridine-8-carbonitrile] | < 0.025 µM
8 | O=C1CCc2nc(N3CCC4(CC3)O[C@@H]3CC[C@@H](c5ccccc5)N3C4=O)ccc21 [Example 4.196, (5′S,7a′R)-1-(5-oxo-6,7-dihydro-5H-cyclopenta[b]pyridin-2-yl)-5′-phenyltetrahydro-3′H-spiro[piperidine-4,2′-pyrrolo[2,1-b] [1,3]oxazol]-3′-one] | 0.0317 µM
9 | Cc1nc(N2CCC3(CC2)C[C@@H]2OC[C@@H](c4ccccc4)N2C3=O)ccc1C#N [Example 4.78, 2-methyl-6-[(3′R,7a′S)-5′-oxo-3′-phenyltetrahydro-1H,5′H-spiro[piperidine-4,6′-pyrrolo[2,1-b] [1,3]oxazol]-1-yl]pyridine-3-carbonitrile] | 0.0587 µM
10 | Cc1nc(N2CCC3(CC2)OC2CCC(c4cnccn4)N2C3=O)ccc1C#N (stereo not drawn) [Example 4.142, 2-methyl-6-[3′-oxo-5′-(pyrazin-2-yl)tetrahydro-1H,3′H-spiro[piperidine-4,2′-pyrrolo[2,1-b] [1,3]oxazol]-1-yl]pyridine-3-carbonitrile] | < 0.025 µM
11 | N#Cc1ccc(N2CCC3(CC2)O[C@@H]2CC[C@@H](c4ccccc4)N2C3=O)n2ncc(C#N)c12 [Example 4.178, 7-[(5′S,7a′R)-3′-oxo-5′-phenyltetrahydro-1H,3′H-spiro[piperidine-4,2′-pyrrolo[2,1-b] [1,3]oxazol]-1-yl]pyrazolo[1,5-a] pyridine-3,4-dicarbonitrile] | < 0.025 µM
12 | O=C1N2[C@@H](CC[C@H]2c2ccccc2)OC12CCN(c1cc(C(F)(F)F)ncn1)CC2 [Example 4.33, (5′S,7a′R)-5′-phenyl-1-[6-(trifluoromethyl)pyrimidin-4-yl]tetrahydro-3′H-spiro[piperidine-4,2′-pyrrolo[2,1-b] [1,3]oxazol]-3′-one] | 0.05 µM
13 | CSc1cc(N2CCC3(CC2)O[C@@H]2CC[C@@H](c4cc(F)cc(F)c4)N2C3=O)ncc1C#N [Example 4.71, 6-[(5′S,7a′R)-5′-(3,5-difluorophenyl)-3′-oxotetrahydro-1H,3′H-spiro[piperidine-4,2′-pyrrolo[2,1-b] [1,3]oxazol]-1-yl]-4-(methylsulfanyl)pyridine-3-carbonitrile] | 0.0303 µM

More lines, now with the values ahead:

Row | EC50 | Compound
14 | < 0.025 µM | N#CC1(c2cccc(C(=O)N3CCC4(CC3)O[C@@H]3CC[C@@H](c5cc(F)cc(F)c5)N3C4=O)c2)CC1 [Example 6.71, 1-{3-[(5′S,7a′R)-5′-(3,5-difluorophenyl)-3′-oxotetrahydro-1H,3′H-spiro[piperi-dine-4,2′-pyrrolo-[2,1-b][1,3]oxazole]-1-carbonyl]phenyl} cyclopropane-1-car-bonitrile]
15 | 0.275 µM | CC1C[C@@]2(CCN1C(=O)c1ccccc1)O[C@@H]1CC[C@@H](c3cccc(F)c3)N1C2=O (stereo partly drawn) [Example 6.161, (4R,5′S,7a′R)-1-(benzenecarbonyl)-5′-(3-fluorophenyl)-2-methyltetrahydro-3′H-spiro[piperidine-4,2′-pyrrolo[2,1-b][1,3]-oxazol]-3′-one]
16 | 0.572 µM | Cc1ncc(C(=O)N2CCC3(CC2)O[C@@H]2CC[C@@H](c4cc(F)cc(F)c4)N2C3=O)cn1 [Example 6.77, (5′S,7a′R)-5′-(3,5-difluorophenyl)-1-(2-methylpyrimidine-5-carbonyl)tetrahydro-3′H-spiro[piperidine-4,2′-pyrrolo[2,1-b] [1,3]oxazol]-3′-one]
17 | 0.121 µM | O=C(c1cccc(F)c1)N1CCC2(CC1)O[C@@H]1CC[C@@H](c3ccc(F)cc3)N1C2=O [Example 7.1, (5′S,7a′R)-1-(3-Fluorobenzoyl)-5′-(4-fluorophenyl)tetrahydro-3′H-spiro[piperidine-4,2′-pyrrolo[2,1-b]oxazol]-3′-one]
18 | 0.295 µM | O=C1N2[C@H](CC13CCN(c1cc(F)ccn1)CC3)OC[C@H]2c1ccccc1 [Example 11.2, (3′R,7a′S)-1-(4-fluoropyridin-2-yl)-3′-phenyltetrahydro-5′H-spiro[piperidine-4,6′-pyrrolo[2,1-b][1,3]oxazol]-5′-one]
19 | 0.0611 µM | O=C1N2[C@@H](CC[C@H]2c2ccccc2)OC12CCN(c1nc(-c3ccccn3)cs1)CC2 [Example 11.4, (5′S,7a′R)-5′-phenyl-1-[4-(pyridin-2-yl)-1,3-thiazol-2-yl]tetrahydro-3′H-spiro[piperidine-4,2′-pyrrolo[2,1-b][1,3]oxazol]-3′-one]
20 | 0.189 µM | Cc1nocc1C(=O)N1CCC2(CC1)O[C@@H]1CC[C@@H](c3cc(F)cc(F)c3)N1C2=O [Example 5.33, (5′S,7a′R)-5′-(3,5-difluoro-phenyl)-1-(3-methylisoxa-zole-4-carbonyl)tetrahydro-3′H-spiro[piperidine-4,2′-pyrrolo[2,1-b]oxazol]-3′-one]
21 | 0.0944 µM | O=C(c1ccccc1)N1CCC2(CC1)O[C@@H]1CC[C@@H](c3ccc(F)cn3)N1C2=O [Example 17.6, (5′S,7a′R)-1-benzoyl-5′-(5-fluoropyridin-2-yl)tetrahydro-3′H-spiro[piperidine-4,2′-pyrrolo[2,1-b]oxazol]-40′-one, TFA salt]
22 | 0.0319 µM | O=C(c1ccnc(C(F)(F)F)c1F)N1CCC2(CC1)O[C@@H]1CC[C@@H](c3cc(F)cc(F)c3)N1C2=O [Example 6.74, (5′S,7a′R)-5′-(3,5-difluorophenyl)-1-[3-fluoro-2-(trifluoro-methyl)pyridine-4-carbonyl]tetrahydro-3′H-spiro[piperidine-4,2′-pyrrolo[2,1-b] [1,3]oxazol]-3′-one]
23 | < 0.025 µM | CC(C)(O)C#Cc1cccc(C(=O)N2CCC3(CC2)O[C@@H]2CC[C@@H](c4cc(F)cc(F)c4)N2C3=O)c1 [Example 5.24, (5′S,7a′R)-5′-(3,5-difluoro-phenyl)-1-(3-(3-hydroxy-3-methylbut-1-yn-1-yl)-benzoyl)tetrahydro-3′H-spiro[piperidine-4,2′-pyrrolo[2,1-b]oxazol]-3′-one]
24 | 0.0305 µM | O=C(c1ccn2nncc2c1)N1CCC2(CC1)O[C@@H]1CC[C@@H](c3cc(F)cc(F)c3)N1C2=O [Example 6.22, (5′S,7a′R)-5′-(3,5-difluorophenyl)-1-([1,2,3]triazolo[1,5-a]pyridine-5-carbon-yl)tetrahydro-3′H-spiro[piperidine-4,2′-pyrrolo[2,1-b][1,3]oxazol]-3′-one]
25 | 0.0305 µM | O=C(c1ccc(F)c(F)n1)N1CCC2(CC1)O[C@@H]1CC[C@@H](c3cc(F)cc(F)c3)N1C2=O [Example 6.94, (5′S,7a′R)-5′-(3,5-difluorophenyl)-1-(5,6-difluoropyridine-2-carbonyl)tetrahydro-3′H-spiro[piperidine-4,2′-pyrrolo[2,1-b] [1,3]oxazol]-3′-one]
26 | 0.311 µM | O=C(c1ccc(C(F)F)nc1)N1CCC2(CC1)O[C@@H]1CC[C@@H](c3cc(F)cc(F)c3)N1C2=O [Example 6.66, (5′S,7a′R)-1-[6-(difluoromethyl)pyr-idine-3-carbonyl]-5′-(3,5-difluorophenyl)-tetrahydro-3′H-spiro [piperidine-4,2′-pyrrolo[2,1-b][1,3]-oxazol]-3′-one]
27 | 0.0345 µM | O=C1N2[C@@H](CC[C@H]2c2ccccc2F)OC12CN(c1cc(-c3ccccc3)no1)C2 [Example 11.35, (5′S,7a′R)-5′-(2-fluorophenyl)-1-(3-phenyl-1,2-oxazol-5-yl)tetrahydro-3′H-spiro[azetidine-3,2′-pyrrolo[2,1-b][1,3]oxazol]-3′-one]
